Calls of active or inactive are those of the source. No cut-off for these calls is given here.
Key:
[1] = Toxicity against male Sprague-Dawley rat assessed as effect on creatinine level in blood at 10 to 40 mg/kg, po administered once daily via gavage for 28 days and measured on day 29; format: organism-based; settings: in vivo, 696 h, dose 10-40 mg/kg, time 29 day
[2] = Half-life in Balb/c mouse xenografted with human MV4-11 cells at 15 mg/kg, po administered once daily via gavage; format: ADME, organism-based; settings: in vivo
[3] = molecular target: Cyclin-dependent kinase 7 (Homo sapiens) (UniProt P50613); experiment: Inhibition of CDK7 (unknown origin) at 5 uM by DiscoverX KinomeScan ScanMAX analysis
[4] = Toxicity against female Sprague-Dawley rat assessed as effect on sodium level in blood at 7.5 to 30 mg/kg, po administered once daily via gavage for 28 days and measured on day 29; format: organism-based; settings: in vivo, 696 h, dose 7.5-30 mg/kg, time 29 day
[5] = AUC in Balb/c mouse xenografted with human MV4-11 cells at 15 mg/kg, po administered once daily via gavage; format: ADME, organism-based; settings: in vivo
[6] = Toxicity against male Sprague-Dawley rat assessed as decrease in lymphocytes content at 10 to 40 mg/kg, po administered once daily via gavage for 28 days and measured on day 29; format: organism-based; settings: in vivo, 696 h, dose 10-40 mg/kg, time 29 day
[7] = Half life in male Sprague-Dawley rat at 20 mg/kg, po administered via gavage and measured on day 1; format: ADME, organism-based; settings: in vivo
Mus musculus [8] = experiment: In vivo inhibition of CDK7 in Balb/c mouse xenografted with human SUM149PT cells assessed as reduction in phosphorylation of Ser5 on RNA Pol II at 15 to 30 mg/kg, po administered once daily via gavage and measured at 4 hrs post-last drug dosage by western blot analysis; format: functional, organism-based; settings: dose 15-30 mg/kg
[9] = Toxicity against male Sprague-Dawley rat assessed as effect on mean corpuscular hemoglobin at 10 to 40 mg/kg, po administered once daily via gavage for 28 days and measured on day 29; format: organism-based; settings: in vivo, 696 h, dose 10-40 mg/kg, time 29 day
[10] = AUC(0 to t) in female Sprague-Dawley rat at 15 mg/kg, po administered via gavage and measured on day 1; format: ADME, organism-based; settings: in vivo, 24 h, time 1 day
[11] = molecular target: Cyclin-dependent kinase 2/cyclin E1 (Homo sapiens) (UniProt P24864+P24941); experiment: Inhibition of human recombinant N-terminal GST-tagged CDK2/N-terminal GST-tagged Cyclin E1 expressed in HEP Sf9 cells using ATP as substrate at 2 uM measured after 60 mins by ADP-Glo reagent based luminescence analysis
[12] = Clearance in Sprague-Dawley rat at 1 mg/kg, iv measured for 24 hrs by LC-MS/MS analysis; format: ADME, organism-based; settings: in vivo
[13] = AUC(0 to t) in female Sprague-Dawley rat at 30 mg/kg, po administered via gavage and measured on day 1; format: ADME, organism-based; settings: in vivo, 24 h, time 1 day
MDA-MB-231 = experiment: Antiproliferative activity against human MDA-MB-231 cells assessed as reduction in cell viability incubated for 7 days by CellTiter-Glo reagent based luminescence analysis; format: functional; settings: MDA-MB-231, 168 h
[14] = AUC(0 to t) in male Sprague-Dawley rat at 10 mg/kg, po administered via gavage and measured on day 1; format: ADME, organism-based; settings: in vivo, 24 h, time 1 day
[15] = Cmax in Balb/c mouse xenografted with human SUM149PT cells at 60 mg/kg, po administered once daily via gavage; format: ADME, organism-based; settings: in vivo
[16] = Half life in Sprague-Dawley rat at 50 mg/kg, po measured for 24 hrs by LC-MS/MS analysis; format: ADME, organism-based; settings: in vivo
[17] = Cmax in male Sprague-Dawley rat at 20 mg/kg, po administered via gavage and measured on day 1; format: ADME, organism-based; settings: in vivo, time 1 day
Caco-2 = experiment: Antiproliferative activity against human Caco-2 cells assessed as reduction in cell viability incubated for 7 days by CellTiter-Glo reagent based luminescence analysis; format: functional; settings: Caco-2, 168 h
[18] = molecular target: CDK3/Cyclin E (Homo sapiens) (UniProt P24864+Q00526); experiment: Inhibition of human recombinant N-terminal GST-tagged CDK3/N-terminal 6X His-tagged Cyclin E1 expressed in HEP Sf9 cells using ATP as substrate at 2 uM measured after 60 mins by ADP-Glo reagent based luminescence analysis
Cytochrome P450 3A4 = Cytochrome P450 3A4 (Homo sapiens, UniProt P08684); experiment: Inhibition of CYP3A4 in human liver microsomes assessed as inhibition of midazolam-1'-hydroxylation incubated for 10 mins in presence of NADPH by LC-MS/MS analysis; format: ADME, Microsome
HCT-116 = experiment: Antiproliferative activity against human HCT-116 cells assessed as reduction in cell viability incubated for 7 days by CellTiter-Glo reagent based luminescence analysis; format: functional; settings: HCT-116, 168 h
[19] = Cmax in female Sprague-Dawley rat at 15 mg/kg, po administered once daily via gavage for 28 days; format: ADME, organism-based; settings: in vivo, time 28 day
NAMALVA = experiment: Antiproliferative activity against human NAMALWA cells assessed as reduction in cell viability incubated for 7 days by CellTiter-Glo reagent based luminescence analysis; format: functional; settings: 168 h
[20] = AUC (0 to infinity) in Sprague-Dawley rat at 15 mg/kg, po by LC-MS/MS analysis; format: ADME, organism-based; settings: in vivo
Cytochrome P450 2C9 = Cytochrome P450 2C9 (Homo sapiens, UniProt P11712); experiment: Inhibition of CYP2C9 in human liver microsomes assessed as inhibition of diclofenac-4-hydroxylation incubated for 10 mins in presence of NADPH by LC-MS/MS analysis; format: ADME, Microsome
[21] = molecular target: Cyclin-dependent kinase 12/13 (Homo sapiens) (UniProt Q14004+Q9NYV4); experiment: Inhibition of CDK12/13 in human SUM149PT cells assessed as reduction in ATM gene expression at 500 nM incubated for 8 to 24 hrs by qPCR analysis; format: cell-based; settings: time lower 8.0 hrs, time upper […]
[22] = Toxicity against male Sprague-Dawley rat assessed as effect on sodium level in blood at 10 to 40 mg/kg, po administered once daily via gavage for 28 days and measured on day 29; format: organism-based; settings: in vivo, 696 h, dose 10-40 mg/kg, time 29 day
Mus musculus [23] = experiment: In vivo inhibition of CDK12/13 in Balb/c mouse xenografted with human SUM149PT cells assessed as reduction in BRCA1 gene expression at 15 to 30 mg/kg, po administered once daily via gavage and measured at 4 hrs post-last drug dosage by qPCR analysis; format: functional, organism-based; settings: dose 15-30 mg/kg
Ramos = experiment: Antiproliferative activity against human Ramos cells assessed as reduction in cell viability incubated for 7 days by CellTiter-Glo reagent based luminescence analysis; format: functional; settings: 168 h
KARPAS-299 = experiment: Antiproliferative activity against human KARPAS-299 cells assessed as reduction in cell viability incubated for 7 days by CellTiter-Glo reagent based luminescence analysis; format: functional; settings: KARPAS-299, 168 h
CDK9/cyclin T1 = CDK9/cyclin T1 (Homo sapiens, UniProt P50750); experiment: Inhibition of human recombinant N-terminal GST-tagged CDK9/N-terminal GST-tagged and C-terminal 8X His-tagged Cyclin T1 expressed in HEP Sf9 cells using ATP as substrate measured after 60 mins by ADP-Glo reagent based luminescence assay
NCI-H508 = experiment: Antiproliferative activity against human NCI-H508 cells assessed as reduction in cell viability incubated for 7 days by CellTiter-Glo reagent based luminescence analysis; format: functional; settings: NCI-H508, 168 h

CDK3/Cyclin E (Homo sapiens), sequence (P24864 whole entry, looked up): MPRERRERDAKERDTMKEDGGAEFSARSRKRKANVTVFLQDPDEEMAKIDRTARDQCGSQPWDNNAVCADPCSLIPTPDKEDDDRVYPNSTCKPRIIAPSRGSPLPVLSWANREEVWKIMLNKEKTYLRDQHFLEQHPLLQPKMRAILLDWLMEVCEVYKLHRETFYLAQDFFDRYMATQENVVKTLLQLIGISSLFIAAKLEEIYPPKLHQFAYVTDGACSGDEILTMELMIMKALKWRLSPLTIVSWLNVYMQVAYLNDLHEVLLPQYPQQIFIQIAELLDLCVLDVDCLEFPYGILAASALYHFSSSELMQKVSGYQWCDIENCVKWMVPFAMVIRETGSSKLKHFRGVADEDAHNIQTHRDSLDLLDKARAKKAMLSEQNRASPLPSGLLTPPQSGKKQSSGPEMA
CDK3/Cyclin E (Homo sapiens), sequence (Q00526 whole entry, looked up): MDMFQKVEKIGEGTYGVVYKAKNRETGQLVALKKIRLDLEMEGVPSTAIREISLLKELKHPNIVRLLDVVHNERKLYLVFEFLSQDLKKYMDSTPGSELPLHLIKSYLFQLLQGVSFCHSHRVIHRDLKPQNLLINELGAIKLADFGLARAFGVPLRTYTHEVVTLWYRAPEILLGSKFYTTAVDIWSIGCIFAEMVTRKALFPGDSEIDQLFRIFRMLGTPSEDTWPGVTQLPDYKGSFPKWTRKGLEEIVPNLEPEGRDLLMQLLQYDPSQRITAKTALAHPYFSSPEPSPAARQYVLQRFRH
Cytochrome P450 3A4, sequence (P08684 whole entry): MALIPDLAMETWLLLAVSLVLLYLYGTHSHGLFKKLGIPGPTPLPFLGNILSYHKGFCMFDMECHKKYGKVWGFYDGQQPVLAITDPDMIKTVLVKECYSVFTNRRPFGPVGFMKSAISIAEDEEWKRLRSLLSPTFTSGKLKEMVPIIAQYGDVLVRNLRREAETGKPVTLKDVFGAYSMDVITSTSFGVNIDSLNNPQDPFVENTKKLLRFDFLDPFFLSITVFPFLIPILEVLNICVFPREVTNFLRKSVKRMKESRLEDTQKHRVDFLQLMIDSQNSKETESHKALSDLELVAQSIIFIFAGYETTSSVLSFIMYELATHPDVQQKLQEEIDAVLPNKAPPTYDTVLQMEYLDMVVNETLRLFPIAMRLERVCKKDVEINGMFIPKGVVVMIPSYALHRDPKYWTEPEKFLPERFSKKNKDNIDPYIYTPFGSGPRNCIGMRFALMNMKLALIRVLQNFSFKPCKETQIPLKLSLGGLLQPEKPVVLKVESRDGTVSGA
Cytochrome P450 2C9, sequence (P11712 whole entry): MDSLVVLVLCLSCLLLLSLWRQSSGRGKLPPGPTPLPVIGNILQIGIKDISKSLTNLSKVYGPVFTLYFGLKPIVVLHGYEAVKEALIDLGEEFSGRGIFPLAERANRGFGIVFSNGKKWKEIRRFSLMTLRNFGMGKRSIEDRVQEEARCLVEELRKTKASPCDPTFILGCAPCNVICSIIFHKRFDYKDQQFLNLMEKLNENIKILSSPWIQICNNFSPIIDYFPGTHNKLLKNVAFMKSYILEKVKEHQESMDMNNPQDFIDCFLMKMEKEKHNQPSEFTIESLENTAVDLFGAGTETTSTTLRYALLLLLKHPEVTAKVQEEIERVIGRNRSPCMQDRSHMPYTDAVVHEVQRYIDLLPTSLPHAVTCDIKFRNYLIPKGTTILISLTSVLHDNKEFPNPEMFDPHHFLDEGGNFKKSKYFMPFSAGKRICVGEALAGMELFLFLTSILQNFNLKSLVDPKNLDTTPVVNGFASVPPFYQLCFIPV
Cyclin-dependent kinase 7 (Homo sapiens), sequence (P50613 whole entry): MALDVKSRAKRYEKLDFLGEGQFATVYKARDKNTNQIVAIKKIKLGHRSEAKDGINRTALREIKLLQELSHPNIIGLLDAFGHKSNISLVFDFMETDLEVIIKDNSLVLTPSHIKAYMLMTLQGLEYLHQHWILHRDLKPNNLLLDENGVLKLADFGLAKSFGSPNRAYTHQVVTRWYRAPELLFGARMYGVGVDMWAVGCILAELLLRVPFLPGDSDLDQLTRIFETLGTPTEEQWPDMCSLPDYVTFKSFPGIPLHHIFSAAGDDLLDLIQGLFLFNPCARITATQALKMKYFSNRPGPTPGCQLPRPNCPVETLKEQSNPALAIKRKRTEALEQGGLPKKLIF
CDK9/cyclin T1, sequence (O60563 whole entry): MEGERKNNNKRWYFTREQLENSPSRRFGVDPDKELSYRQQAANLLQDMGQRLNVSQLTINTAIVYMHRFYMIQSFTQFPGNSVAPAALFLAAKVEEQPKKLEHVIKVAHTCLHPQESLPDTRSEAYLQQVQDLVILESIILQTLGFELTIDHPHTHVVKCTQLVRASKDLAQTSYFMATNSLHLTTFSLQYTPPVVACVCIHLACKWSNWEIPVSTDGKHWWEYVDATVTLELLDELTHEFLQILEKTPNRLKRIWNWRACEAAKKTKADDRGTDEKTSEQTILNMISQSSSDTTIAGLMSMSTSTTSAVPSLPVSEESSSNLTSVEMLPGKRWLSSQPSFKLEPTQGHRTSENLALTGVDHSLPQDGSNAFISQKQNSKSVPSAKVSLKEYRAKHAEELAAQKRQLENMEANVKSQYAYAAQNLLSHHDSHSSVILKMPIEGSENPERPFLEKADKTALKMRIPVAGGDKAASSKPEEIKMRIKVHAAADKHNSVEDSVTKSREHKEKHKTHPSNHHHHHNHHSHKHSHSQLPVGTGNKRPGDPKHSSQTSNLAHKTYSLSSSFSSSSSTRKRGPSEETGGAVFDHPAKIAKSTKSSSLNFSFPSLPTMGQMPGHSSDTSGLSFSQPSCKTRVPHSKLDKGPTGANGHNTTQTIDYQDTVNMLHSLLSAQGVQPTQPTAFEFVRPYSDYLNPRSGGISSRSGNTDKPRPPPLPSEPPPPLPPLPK
CDK9/cyclin T1, sequence (P50750 whole entry): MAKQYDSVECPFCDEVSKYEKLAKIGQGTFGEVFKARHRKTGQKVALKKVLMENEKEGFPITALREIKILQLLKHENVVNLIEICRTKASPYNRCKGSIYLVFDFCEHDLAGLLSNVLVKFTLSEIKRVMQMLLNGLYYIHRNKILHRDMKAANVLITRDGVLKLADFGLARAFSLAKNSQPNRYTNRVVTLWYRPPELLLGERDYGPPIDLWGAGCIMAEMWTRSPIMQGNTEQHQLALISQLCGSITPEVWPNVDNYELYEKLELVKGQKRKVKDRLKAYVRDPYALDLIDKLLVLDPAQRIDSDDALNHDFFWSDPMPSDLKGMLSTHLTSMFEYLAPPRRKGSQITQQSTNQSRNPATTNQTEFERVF

## C=CC(=O)N1CCc2c(ncnc2N2CC[C@@H](Nc3ncc(Cl)c(OC)n3)C2)C1
[1]
  Activity: Non-toxic
[2]
  half-life: 245 min
[3]
  inhibition: Active
[4]
  Activity: Non-toxic
[5]
  AUC: 2140 ng·h/mL
[6]
  Activity: Toxic
[7]
  half-life: 246 min
Mus musculus [8]
  inhibition: inactive
[9]
  Activity: Non-toxic
[10]
  AUCt: 3000 ng·h/mL
[11]
  inhibition: 63%
[12]
  clearance: 62.4 mL/min/kg
[13]
  AUCt: 9090 ng·h/mL
MDA-MB-231
  IC50: 58 nM
[14]
  AUCt: 978 ng·h/mL
[15]
  Cmax: 3300 ng/mL
[16]
  half-life: 407 min
[17]
  Cmax: 1070 ng/mL
Caco-2
  IC50: 122 nM
[18]
  inhibition: 46%
Cytochrome P450 3A4
  IC50: > 50 µM
HCT-116
  IC50: 128 nM
[19]
  Cmax: 1800 ng/mL
NAMALVA
  IC50: 98 nM
[20]
  AUC(0-inf): 2280 ng·h/mL
Cytochrome P450 2C9
  IC50: > 50 µM
[21]
  inhibition: Active
[22]
  Activity: Non-toxic
Mus musculus [23]
  inhibition: Active
Ramos
  IC50: 101 nM
KARPAS-299
  IC50: 131 nM
CDK9/cyclin T1
  IC50: 641 nM
NCI-H508
  IC50: 87 nM

— ChEMBL document CHEMBL6153137, “Design, Synthesis, and Biological Evaluation of Novel Orally Available Covalent CDK12/13 Dual Inhibitors for the Treatment of Tumors” (J Med Chem, 2025)
